Test results: patent US11236060B2, “Method for producing solid dispersion containing nobiletin” (KAO CORPORATION, priority 2018, dated 2022)

Experiment: Solubility in 25° C. water of the poorly water-soluble substance
Assay type: physicochemical
Conditions: poorly water-soluble substance itself (ingredient)

Row | Structure (SMILES) | Solubility in 25° C. water [ppm]
1 | O=c1oc2c(O)c(O)cc3c(=O)oc4c(O)c(O)cc1c4c23 [Ellagic acid, ellagic acid] | 4
2 | COc1ccc(-c2cc(=O)c3c(OC)c(OC)c(OC)c(OC)c3o2)cc1OC [Nobiletin, 3′,4′,5,6,7,8-hexamethoxyflavone] | 1
